Results published in patent publication US11718589B2, “Compositions and methods of modulating short-chain dehydrogenase” (CASE WESTERN RESERVE UNIVERSITY, priority 2017, dated 2023).

The compounds below were run against recombinant 15-PGDH (Homo sapiens (Human), UniProt P15428) (assay: Enzyme inhibition of recombinant 15-PGDH, in vitro assay). Settings: not given.
Assay type: biochemical

recombinant 15-PGDH, sequence (P15428 whole entry): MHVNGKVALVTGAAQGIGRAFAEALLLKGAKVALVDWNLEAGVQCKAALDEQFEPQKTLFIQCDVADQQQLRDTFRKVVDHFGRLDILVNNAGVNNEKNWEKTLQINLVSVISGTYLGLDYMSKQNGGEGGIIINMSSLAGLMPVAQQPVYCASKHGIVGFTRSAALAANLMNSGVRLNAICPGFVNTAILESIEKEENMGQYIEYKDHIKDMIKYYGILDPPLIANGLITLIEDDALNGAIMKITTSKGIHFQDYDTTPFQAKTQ

Compound | IC50
COc1ccc(-c2cc(C(F)(F)F)n3nc(C(=O)N4CCC(=O)CC4)cc3n2)cc1 [13a] | 500 to 2500 nM

Same assay, conditions: recombinant human 15-PGDH; read-out: Enzyme inhibition (IC50)

Compound | IC50
O=C(c1ccc2ncc(-c3cc(F)cc(F)c3)nc2c1)N1CCCCC1 [47b] | 16 nM
COc1ccc(-c2cc(C(F)(F)F)n3nc(C(=O)N4CCC(OC)CC4)cc3n2)cc1 [21a] | 100 to 500 nM
COc1ccc(-c2cc(-c3ccncc3Cl)n3nc(C(=O)N4CCCCC4)cc3n2)cc1 [26a] | ~500 nM
Cn1nccc1-c1nc(-c2ccccc2)nc2cc(C(=O)N3CCCCC3)ccc12 [90b] | ~4 nM
CC(C)(O)Cn1ccc2cc(-c3cnc4ccc(C(=O)N5CCCCC5)cc4n3)ccc2c1=O [89b] | ~4 nM
COc1ccc(-c2cc(-c3ccncc3)n3nc(C(=O)N4CCCCC4)cc3n2)cc1 [22a] | ~100 nM
O=C(c1cc2nc(-c3ccccc3)cc(C(F)(F)F)n2n1)N1CCCCC1 [61a] | > 2500 nM
COc1ccc(-c2cc(OC)n3nc(C(=O)N4CCCCC4)cc3n2)cc1 [33a] | 20 to 100 nM
O=C(c1ccc2nc(-c3ccccc3)c(-c3cncnc3)nc2c1)N1CCCCC1 [36b] | 20 to 100 nM
O=C(c1cc2nc(-c3cncnc3)cc(C(F)(F)F)n2n1)N1CCCCC1 [37a] | > 2500 nM
COc1ccc(-c2cc(C(F)(F)F)n3nc(C(=O)N4CCCC(C(F)(F)F)C4)cc3n2)cc1 (stereo not shown) [64a] | 100 to 500 nM
O=C(c1cc2ncc(-c3ccccc3)cn2n1)N1CCCCC1 [41a] | 768 nM
O=C(c1ccc2ncc(-c3cccc(F)c3)nc2c1)N1CCCCC1 [41b] | 4 to 20 nM
COc1ccc(-c2cc(C(F)(F)F)n3nc(C(=O)N4CCOCC4)cc3n2)cc1 [10a] | 100 to 500 nM
CCN(CC)C(=O)c1cc2nc(-c3ccc(OC)cc3)cc(C(F)(F)F)n2n1 [8a] | 100 nM
COc1ccc(-c2cc(-c3ccnc(Cl)c3)n3nc(C(=O)N4CCCCC4)cc3n2)cc1 [25a] | > 100 nM
COc1ccc(-c2cc(N3CCCCC3)n3nc(C(=O)N4CCCCC4)cc3n2)cc1 [44a] | 500 nM
O=C(c1cc2nc(-c3ccc(O)cc3)cc(C(F)(F)F)n2n1)N1CCCCC1 [68a] | > 2500 nM

Compound | IC50
O=C(c1ccc2ncc(-c3ccc4c(=O)[nH]cc(Cl)c4c3)nc2c1)N1CCCCC1 [92b] | < 4 nM
CCCC[S+]([O-])c1cc2nc(-c3ccc(OC)cc3)cc(-c3cn(C)nc3C)n2n1 (stereo not shown) [73a] | 500 nM
O=C(c1cc2nc(-c3cccs3)cc(C(F)(F)F)n2n1)N1CCCCC1 [42a] | > 2500 nM
COc1ccc(-c2cc(C(F)(F)F)n3nc(C(=O)N4CC(C)CC(C)C4)cc3n2)cc1 (stereo not shown) [57a] | 100 nM
COc1ccc(-c2cc(C(F)(F)F)n3nc(C(=O)N4CCCC4)cc3n2)cc1 [9a] | > 2500 nM
COc1ccc(-c2cc(C(F)(F)F)n3nc(C(=O)N4CCC(F)CC4)cc3n2)cc1 [15a] | 42 nM
C=CCNC(=O)c1ccc2nc(-c3ccccc3)c(-c3ccccc3)nc2c1 [19b] | > 2500 nM
CNC(=O)c1[nH]c2ccc(-c3cnc4ccc(C(=O)N5CCCCC5)cc4n3)cc2c1C [94b] | < 4 nM
O=C(c1cc2nc(-c3ccc(Cl)cc3)cc(C(F)(F)F)n2n1)N1CCCCC1 [56a] | > 2500 nM
COc1ccc(-c2cc(N(C)C)n3nc(C(=O)N4CCCCC4)cc3n2)cc1 [32a] | 33.4 nM
COc1ccc(-c2cc(C3CC3)n3nc(C(=O)N4CCCCC4)cc3n2)cc1 [67a] | 4 to 20 nM
Cc1ccc(-c2cc(C(F)(F)F)n3nc(C(=O)N4CCCCC4)cc3n2)cc1 [40a] | 395 nM
CCCC[S+]([O-])c1cc2nc(-c3ccc(OC)cc3)cc(-c3cnn(C)c3)n2n1 (stereo not shown) [53a] | 500 to 2500 nM
COc1ccc(-c2cc(C(F)(F)F)n3nc(C(=O)N4CCC(C)CC4)cc3n2)cc1 [18a] | 30.6 nM
COc1ccc(-c2cc(C(F)(F)F)n3nc(C(=O)N4CCC(C(F)(F)F)CC4)cc3n2)cc1 [60a] | 500 to 2500 nM
COc1ccc(-c2cc(C(F)(F)F)n3nc(C(=O)N4CCC(NC(=O)OC(C)(C)C)CC4)cc3n2)cc1 [14a] | 100 to 500 nM
COc1ccc(-c2cc(-c3ccccc3)n3nc(C(=O)N4CCCCC4)cc3n2)cc1 [34a] | > 500 nM
COc1ccc(-c2cc(C(F)(F)F)n3nc(C(=O)N4CCCC(F)(F)C4)cc3n2)cc1 [65a] | 100 nM
